Measured values reported in patent US10214583B2, “Sodium pump antibody agonists and methods of treating heart disease using the same” (priority 2011, dated 2019).
Entries after “also recorded” stand apart in the source; their conditions may differ.

Key:
[1] = test system: Spontaneously Hypertensive Heart Failure (SHHF) rats; test: Immunization of late-stage SHHF rats, heart function by echo; assay type: in vivo; details: 14 months old SHHF rats, control rat died
Method: Studies were also conducted on the ability of NKA alpha subunit peptides to induce a therapeutic immune response in late-stage Spontaneously Hypertensive Heart Failure (SHHF) rats. The SHHF rats used for this study were 14 months old with late-stage heart failure. The heart function was measured by echo and expressed as percent of fractional shortening (FS %). The initial heart functions were 26.0% and 28.0% for control SHHF rat and the one with immunization, respectively. […] The peptide with which the rats were immunized has the following amino acid sequence […] (SEQ ID NO:7), as disclosed in U.S. Pat. No. 7,754,210.

isolated rat myocytes = test: Nifedipine and KB-R7943 sensitive 45Ca influx; assay type: cell-based
Method: The reaction was stopped by adding 5 mM EGTA on ice and cells were washed and spun at 4000 rpm for 2 min (×3) to remove extracellular ^45Ca. Net intracellular counts per minute (cpm) of ^45Ca for each sample was determined by using a β-scintillation counter and the concentration of ^45Ca was calculated as described previously (20).

[2] = test system: isolated rat cardiac myocytes; test: Sodium Green fluorescence (intracellular Na+); assay type: cell-based
Method: The final concentration of Sodium Green in each sample tube was 10 μM during the incubation. The myocytes were then transferred to 96-well plates (Nunc) and the measurement of Sodium Green fluorescence was carried out by excitation at 485 nm and quantifying emission at 535 nm using a VICTOR-II multilabel counter (PerkinElmer Life Sciences).

[3] = test system: isolated rat cardiac myocytes; test: Rat myocyte contractility (cell shortening); assay type: cell-based; details: 0.1 mM PB2948 + 0.5 μM JY2948
Text: Rat ventricular myocytes were isolated as described (18). The contraction amplitude was indexed by the percentage shortening of cell length (19).

NKA β1 subunit = test: Specificity analysis by Western blotting; assay type: binding, pig, dog, rat; details: PB2948
Method: Samples of purified rat and dog NKA, along with SDS-stripped pig α1 and β1 subunits (30 μg each) were mixed with electrophoresis sample buffer separately, boiled for 5 min, and loaded on freshly made 7.5% SDS-PAGE gel. Following electrophoresis, the samples were transferred from the SDS gel to a nitrocellulose membrane (0.45 μm). […] The membranes were then washed and incubated with secondary antibody (1:7500) for 1 hour. The color was then developed for visual analysis.

For “DVEDSYGQQWTYEQR (chemically-synthesized antigen) [SEQ ID NO:7, NKA alpha subunit peptide used to immunize SHHF rats, disclosed in U.S. Pat. No. 7,754,210]”, which “late-stage SHHF rat cardiac function (fractional shortening, FS %)” value [1] is on record?
The value was “significantly improved”.

How did the “ouabain-induced 45Ca influx relative to JY2948/β1 subunit-induced influx” value (isolated rat myocytes) turn out when `C[C@@H]1O[C@@H](O[C@H]2C[C@@H](O)[C@]3(CO)[C@H]4[C@H](O)C[C@]5(C)[C@@H](C6=CC(=O)OC6)CC[C@]5(O)[C@@H]4CC[C@]3(O)C2)[C@H](O)[C@H](O)[C@H]1O` [ouabain] was run?
The value was 4.4 fold.

And the “share of ouabain-induced 45Ca influx through LTCC” value (isolated rat myocytes)?
Its value is “approximately 40%”.

And the “share of ouabain-induced 45Ca influx through NCX” value (isolated rat myocytes)?
The value was about 60%.

What about the 45Ca influx (isolated rat myocytes; ouabain 2.5 mM alone) of the same compound?
The 45Ca influx was 330±6.4 pCi.

What about the “nifedipine-resistant 45Ca influx” value (isolated rat myocytes; ouabain + 10 μM nifedipine) of the same compound?
The value was 188±78 pCi.

And the “ouabain-induced 45Ca influx” value (isolated rat myocytes; ouabain + both nifedipine and KB-R7943)?
The value was “completely impeded; also recorded: completely abolished”.

What about the “Sodium Green fluorescence intensity” value ([2]; ouabain (2.5 mM)) of the same compound?
Its value is 136±13%.

And the “Sodium Green fluorescence intensity” value ([2]; ouabain + 5 μM KB-R7943)?
The value was 153±19%.

What about the “Sodium Green fluorescence intensity” value ([2]; ouabain + 30 μM KB-R7943) of the same compound?
The value was 151±23%.

What does the source list for “KERGEFNHERGER (listed as Rattus norvegicus) [PB2948]”?
JY2948-induced positive inotropic effect in the presence of peptide blocker [3]: completely eliminated; interaction between JY2948 and native β1 subunit in presence of peptide blocker (NKA β1 subunit): completely abolished

What does the source list for `N=C(N)SCCc1ccc(OCc2ccc([N+](=O)[O-])cc2)cc1` [KB-R7943]?
effect on JY2948-induced 45Ca influx (isolated rat myocytes; KB-R7943 (5 μM)): failed to inhibit; changes of 45Ca concentration compared with control cell background (isolated rat myocytes; KB-R7943 alone (504 [sic])): No significant changes; Sodium Green fluorescence intensity ([2]; 5 μM KB-R7943 alone, control 100): 99±10%; Sodium Green fluorescence intensity ([2]; 30 μM KB-R7943 alone, control 100): 102±7.0%
